Values joined by “and” are separate entries in the source; they are usually repeats but may differ in a detail not shown here. Equal values may be shown once. Toxic doses and inconclusive results are not listed. Rule for the calls: active = survival T/C of 150% or more; inactive = T/C below 125% in these data.
Tested on: P388 leukemia ip, CD2F1 mice, survival T/C
Assay: NCI In Vivo Anticancer Drug Screen. Data for tumor model P388 Leukemia (intraperitoneal) in CD2F1 (CDF1) mice
Conditions: endpoint: median survival time, higher = longer survival
How it was run: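 Mice carrying the transplanted tumor received test compound or vehicle. Survival was recorded in each group, and the value is the treated-group measurement divided by that of the vehicle-treated control group.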

[1] = dose: 50.0 mg/kg/injection, schedule: Q01DX009 (ip), vehicle: saline with Tween-80
[2] = dose: 100.0 mg/kg/injection, schedule: Q01DX009 (ip), vehicle: saline with Tween-80
[3] = dose: 50.0 mg/kg/injection, schedule: Q01DX005 (ip), vehicle: saline with Tween-80
[4] = dose: 100.0 mg/kg/injection, schedule: Q01DX005 (ip), vehicle: saline with Tween-80
[5] = dose: 200.0 mg/kg/injection, schedule: Q01DX005 (ip), vehicle: saline with Tween-80
[6] = dose: 200.0 mg/kg/injection, schedule: Q01DX009 (ip), vehicle: saline with Tween-80
[7] = dose: 60.0 mg/kg/injection, schedule: Q01DX005 (ip), vehicle: saline with Tween-80
[8] = dose: 120.0 mg/kg/injection, schedule: Q01DX005 (ip), vehicle: saline with Tween-80
[9] = dose: 240.0 mg/kg/injection, schedule: Q01DX005 (ip), vehicle: saline with Tween-80
[10] = dose: 100.0 mg/kg/injection, schedule: Q04DX002 (ip), vehicle: saline
[11] = dose: 200.0 mg/kg/injection, schedule: Q04DX002 (ip), vehicle: saline
[12] = dose: 400.0 mg/kg/injection, schedule: Q04DX002 (ip), vehicle: saline

Measured: T/C

NC(CC1C=CCCC1)C(=O)O (stereo not given)
inactive: dose: 60.0 mg/kg/injection, schedule: Q01DX005 (ip), vehicle: Klucel (hydroxypropylcellulose) (HPC) 98 % of control | dose: 120.0 mg/kg/injection, schedule: Q01DX005 (ip), vehicle: Klucel (hydroxypropylcellulose) (HPC) 98 % of control | dose: 240.0 mg/kg/injection, schedule: Q01DX005 (ip), vehicle: Klucel (hydroxypropylcellulose) (HPC) 95 % of control

CC(C)N(C(=O)C1CCN(Cc2c[nH]c3ccccc23)CC1)C(C)C
inactive: dose: 12.5 mg/kg/injection, schedule: Q01DX009 (ip), vehicle: saline with Tween-80 108 % of control | dose: 25.0 mg/kg/injection, schedule: Q01DX009 (ip), vehicle: saline with Tween-80 101 % of control | [1] 101 % of control | [2] 115 % of control

C=CCNC(=S)N\N=C/C(/C=C/c1ccccc1)=N\NC(=S)NCC=C
inactive: dose: 100.0 mg/kg/injection, schedule: Q04DX002 (ip), vehicle: Klucel (hydroxypropylcellulose) (HPC) 103 % of control | dose: 200.0 mg/kg/injection, schedule: Q04DX002 (ip), vehicle: Klucel (hydroxypropylcellulose) (HPC) 91 % of control | dose: 400.0 mg/kg/injection, schedule: Q04DX002 (ip), vehicle: Klucel (hydroxypropylcellulose) (HPC) 91 % of control

CCOC(=O)N(C)O
inactive: [3] 105 % of control | [4] 107 % of control | [5] 100 % of control | dose: 400.0 mg/kg/injection, schedule: Q01DX005 (ip), vehicle: saline with Tween-80 100 % of control

Cn1c2cc(Cl)c(Cl)cc2nc2cc3c(cc21)c(Cl)c(=O)c1ccccc13
inactive: [1] 104 % of control | [2] 100 % of control | [6] 98 % of control

O/N=C/C(Cl)(Cl)Cl
inactive: dose: 3.12 mg/kg/injection, schedule: Q01DX009 (ip), vehicle: saline 105 % of control | dose: 6.25 mg/kg/injection, schedule: Q01DX009 (ip), vehicle: saline 109 % of control | dose: 12.5 mg/kg/injection, schedule: Q01DX009 (ip), vehicle: saline 107 % of control and 97 % of control | dose: 25.0 mg/kg/injection, schedule: Q01DX009 (ip), vehicle: saline 100 % of control and 93 % of control

CCc1cccc(CC)c1NC1=C(Cl)C(=O)c2ccccc2C1=O
inactive: [7] 100 % of control | [8] 94 % of control | [9] 104 % of control

Nc1nc(SCc2ccccc2[N+](=O)[O-])c2[nH]cnc2n1
inactive: [2] 104 % of control | dose: 100.0 mg/kg/injection, schedule: Q04DX003 (ip), vehicle: saline with Tween-80 100 % of control | [6] 95 % of control | dose: 200.0 mg/kg/injection, schedule: Q04DX003 (ip), vehicle: saline with Tween-80 100 % of control | dose: 400.0 mg/kg/injection, schedule: Q01DX009 (ip), vehicle: saline with Tween-80 90 % of control | dose: 400.0 mg/kg/injection, schedule: Q04DX003 (ip), vehicle: saline with Tween-80 91 % of control

O=[N+]([O-])c1ccc(N=Nc2ccc(N(CCO)CCO)cc2)cc1
inactive: dose: 60.0 mg/kg/injection, schedule: Q01DX005 (ip), vehicle: suspension in saline 95 % of control | dose: 120.0 mg/kg/injection, schedule: Q01DX005 (ip), vehicle: suspension in saline 97 % of control | dose: 240.0 mg/kg/injection, schedule: Q01DX005 (ip), vehicle: suspension in saline 98 % of control

O=C1COC(C(=O)c2ccccc2)C(=O)N1 (stereo not given)
inactive: [7] 98 % of control | [8] 95 % of control | [9] 95 % of control

CC(C)=C(C#N)N(C)C(C)(C)C
inactive: dose: 50.0 mg/kg/injection, schedule: Q01DX009 (ip), vehicle: saline 100 % of control | dose: 100.0 mg/kg/injection, schedule: Q01DX009 (ip), vehicle: saline 97 % of control

O=C(Cc1ccccn1)c1ccccc1
inactive: dose: 100.0 mg/kg/injection, schedule: Q01DX009 (ip), vehicle: Klucel (hydroxypropylcellulose) (HPC) 109 % of control | dose: 200.0 mg/kg/injection, schedule: Q01DX009 (ip), vehicle: Klucel (hydroxypropylcellulose) (HPC) 108 % of control | dose: 400.0 mg/kg/injection, schedule: Q01DX009 (ip), vehicle: Klucel (hydroxypropylcellulose) (HPC) 110 % of control

CCN(CC)C(=O)c1c(OC)cc(C)cc1C(O)c1cc(OC)cc(OC)c1 (stereo not given)
inactive: [3] 99 % of control | [4] 99 % of control | [5] 96 % of control

Cc1nn(-c2ccccc2)nc1CBr
inactive: [3] 97 % of control | [4] 106 % of control

COc1ccc2c(c1)OC(C)(C)C(c1ccccc1)=C2c1ccc2c(c1)NCCO2
inactive: dose: 15.0 mg/kg/injection, schedule: Q01DX005 (ip), vehicle: saline with Tween-80 99 % of control | dose: 30.0 mg/kg/injection, schedule: Q01DX005 (ip), vehicle: saline with Tween-80 91 % of control | [7] 91 % of control

O=C1C2C3C=CC(O3)C2C(=O)N1/N=C\C(O)C(O)C(O)C(O)CO (stereo not given)
inactive: [3] 97 % of control | [4] 98 % of control | [5] 95 % of control

Cn1c(-c2nc3ccccc3n2C)nc2ccccc21
inactive: [3] 102 % of control | [4] 98 % of control | [5] 102 % of control

COc1ccc(S(=O)(=O)c2cnc(N3CCCCC3)nc2N)cc1
inactive: [10] 100 % of control | [11] 98 % of control | [12] 97 % of control

COc1cc(Br)c2nsnc2c1
inactive: [3] 91 % of control | [4] 91 % of control

O=C(NC(Cc1c[nH]c2ccccc12)C(=O)O)c1ccccc1[N+](=O)[O-] (stereo not given)
inactive: dose: 6.25 mg/kg/injection, schedule: Q01DX005 (ip), vehicle: Klucel (hydroxypropylcellulose) (HPC) 93 % of control | dose: 12.5 mg/kg/injection, schedule: Q01DX005 (ip), vehicle: Klucel (hydroxypropylcellulose) (HPC) 108 % of control | dose: 25.0 mg/kg/injection, schedule: Q01DX005 (ip), vehicle: Klucel (hydroxypropylcellulose) (HPC) 97 % of control

O=S(=O)(Nc1ccccc1Cl)c1ccc(F)cc1
inactive: [7] 96 % of control | [8] 104 % of control | [9] 100 % of control

ClC1=CC(=N/Br)/C=CC/1=N/Br
inactive: [3] 99 % of control and 101 % of control and 107 % of control | [4] 100 % of control and 103 % of control and 97 % of control | [5] 106 % of control and 108 % of control and 120 % of control

CCCS(=O)(=O)CCC(=O)c1cccs1
inactive: [10] 104 % of control | [11] 100 % of control | [12] 101 % of control

CC1CC(=O)Nc2ncccc2N1 (stereo not given)
inactive: [1] 94 % of control | [2] 94 % of control | [6] 94 % of control

— PubChem BioAssay AID330 (DTP/NCI, 2004)
